Data published in patent US20090029856A1, “Hinokitiol As A Plant Pesticide” (priority 2007, published 2009).
Like-named read-outs stand apart in the source and are kept apart here.

Legend:
[1] = Sun exposure experiment in vials, HPLC analysis of hinokitiol; assay type: physicochemical
Protocol: HPLC analysis: HPLC systems include waters 2695 separation modules with auto sampler, waters 2996 photodiode array detector, Masslynx software and Sunfire™ C18 column (5 μm, 4.6×150 mm). […] Gradient mobile phase was adopted. […] Hinokitiol complex with citric acid was monitored at 320 nm. The column temperature was kept at 30° C. during the experiment. […] The vials were put on a rack. […] After sunlight exposure, rack and vials were immediately stored at 4° C. or subsamples were taken for HPLC analysis. Visual observation was recorded before subsamples were taken. Vials were vortexed very well before subsamples were taken. Triplicates were carried out for each sample. All sun light exposure in the later studies was the same unless stated. Temperature in all this studies varied between 75 to 95° F.

[2] = system: 2-week-old cucumber plants; conditions: in vivo
Protocol: Ethoxylated fatty esters (e.g., polyethylene 20 sorbitan monooleate, polyethylene 20 sorbitan monolaurate), ethoxylated alcohols (e.g., Genapol UD-80, UD 110, O-100 and O-200, Clariant Corporation) were chosen for phytotoxic screening in this study. […] These formulations were diluted 100 times with tap water and then sprayed on 2-week-old cucumber plants. […] Precipitation would happen to Oxylignin (sodium salt) when pH reached to 8.0 and then increased with pH.

Row | Substance | Degradation of hinokitiol (%) [1] | degradation of hinokitiol in the formulation compared with other UV protection agents [1] | Degradation of hinokitiol (%) ([1]; pH 7.4) | Degradation of hinokitiol (%) ([1]; pH 8.29) | Degradation of hinokitiol (%) ([1]; pH 9.61) | phytotoxicity on 2-week-old cucumber plants ([2]; pH 10) | phytotoxicity (shown or not) [2]
1 | Humic acid | 40 ± 1% | much slower | 40 ± 3% | 30 ± 2% | 21 ± 4% | no obvious phytotoxicity | 
2 | polyethylene 20 sorbitan monooleate |  |  |  |  |  |  | did not show any obvious phytotoxicity
